Results taken from article PMC10141139 (2023).

Key:
[1] = tested on: miniTERRA (RNA, G4) UUAGGGUUAGGGUUAGGGUUAGGGUUA; assay: fluorescent indicator displacement (ThT); settings: pH 7.4, 34 °C, 5 µM RNA, 5 µM ThT displaced
[2] = tested on: Negative control (RNA, single strand) UUACCCUUACCCUUACCCUUACCCUUA; assay: ThT fluorescence light-up; settings: pH 7.4, 34 °C, 5 µM RNA, 5 µM ThT highest tested
[3] = tested on: miniTERRA (RNA, G4) UUAGGGUUAGGGUUAGGGUUAGGGUUA; assay: ThT fluorescence light-up; settings: pH 7.4, 34 °C, 5 µM RNA, 5 µM ThT

IC50 ([1]; K+ (100 mM phosphate))	IC50 ([1]; Na+ (100 mM phosphate))	binding ([2]; K+ (100 mM phosphate))	binding ([2]; Na+ (100 mM phosphate))	binding ([3]; K+ (100 mM phosphate))	binding ([3]; Na+ (100 mM phosphate))	SMILES
17.23 ± 0.28 µM	19.29 ± 0.25 µM					NCCOc1cc(C(=O)Nc2cc(OCCN)c3ccccc3n2)nc(C(=O)Nc2cc(OCCN)c3ccccc3n2)c1
		no	no	yes	yes	Cc1ccc2c(c1)sc(-c1ccc(N(C)C)cc1)[n+]2C
